We go through 27 compounds from patent US20250145633A1, “SUBSTITUTED FURANOPYRIMIDINE COMPOUNDS AS PDE1 INHIBITORS” (Dart NeuroScience, LLC, priority 2017, published 2025).

Each structure is given as a SMILES string. Counter-ions that a name gives are not always drawn.

The first assay has as its target human PDE1B enzyme (Homo sapiens (Human), UniProt Q01064). The assay is described as follows: IMAP TR-FRET PDE1B enzymatic assay. It counts as biochemical. The note with it: negative log of half-maximal molar inhibitory concentration; 200 nM FAM-cAMP; values given as bins. As to the method:
PDE1B inhibition was determined by an IMAP TR-FRET assay. The IMAP TR-FRET PDE assay was optimized for concentration of enzyme, Calmodulin, cAMP or cGMP substrate, DMSO tolerance, and incubation time.
Into each well of a solid white 1536 well plate (Corning) was dispensed 250 pg full-length recombinant NH-terminal GST tagged human PDE1B enzyme (BPS Bioscience Cat #60011, San Diego, CA) in 2.5 μL IMAP BSA reaction buffer (Molecular Devices, Sunnyvale, CA) containing 10 U/ml Calmodulin and 2.5 mM CaCl2) (Sigma Aldrich.) After a brief centrifugation, 30 nL of compound was added by transfer from 1 mM stock in DMSO using a Kalypsys 1536 Pintool. Plates were incubated for 5 minutes at room temperature before dispensing 1.5 μL of 533 nM 5-carboxy fluorescein (FAM)-labeled cAMP (Molecular Devices, Sunnyvale, CA) for a final concentration of 200 nM. After a brief centrifugation, the plates were incubated for 30 minutes at room temperature. The assay was terminated by adding 5 μL IMAP binding reagent/Tb complex (Molecular Devices, Sunnyvale, CA) to each well.
Plates were incubated for 1 hour at room temperature and were read on a Viewlux multimode plate reader (Perkin Elmer). The instrument was set to excite using the DUG11 filter and measure using 490/10 nm and 520/10 nm filters. Ratios of acceptor and donor were then calculated.
For IC50 calculations, the values of % efficacy versus a series of compound concentrations were then plotted using non-linear regression analysis of sigmoidal dose-response curves generated with the equation Y=[B+(T−B)]/[1+10((Log EC50−X)×Hill Slope)], where Y=percent activity, B=minimum percent efficacy, T=maximum percent efficacy, X=logarithm of compound and Hill Slope=slope factor or Hill coefficient. The IC50 value was determined by the concentration causing a half-maximal percent efficacy.
With `COc1ccc(C(C)NC(=O)c2c(C)oc3ncnc(NC4(C)CC4)c23)cc1OC` (stereo in doubt) [Example 556, N-[(1R)-1-(3,4-Dimethoxyphenyl)ethyl]-6-methyl-4-[(1-methylcyclopropyl)amino]furo[2,3-d]pyrimidine-5-carboxamide], the “PDE1b (pIC50)” value is given as >8. Take `COc1ccc(C(C)NC(=O)c2c(C)oc3ncnc(NC4(C)CC4)c23)cc1` (stereo in doubt) [Example 560, N-[(1R)-1-(4-Methoxyphenyl)ethyl]-6-methyl-4-[(1-methylcyclopropyl)amino]furo[2,3-d]pyrimidine-5-carboxamide]: the “PDE1b (pIC50)” value is >8. Turning to `Cc1oc2ncnc(NC3(C)CC3)c2c1C(=O)N1CCN(c2ccccc2)CC1` [Example 1, (6-Methyl-4-((1-methylcyclopropyl)amino)furo[2,3-d]pyrimidin-5-yl)(4-phenylpiperazin-1-yl)methanone], the “PDE1b (pIC50)” value is recorded as >8. As for `Cc1oc2ncnc(NC3(C)CC3)c2c1C(=O)NCc1ccc(OCF)cn1` [Example 11, N-((5-(Fluoromethoxy)pyridin-2-yl)methyl)-6-methyl-4-((1-methylcyclopropyl)amino)furo[2,3-d]pyrimidin-5-carboxamide], the “PDE1b (pIC50)” value was >8. The same measure, in the same setting: under `Cc1oc2ncnc(NC3(C)CC3)c2c1C(=O)N1CC=C(c2cnc(C#N)c(F)c2)CC1` [Example 12, 3-Fluoro-5-(1-{6-methyl-4-[(1-methylcyclopropyl)amino]furo[2,3-d]pyrimidine-5-carbonyl}-1,2,3,6-tetrahydropyridin-4-yl)pyridine-2-carbonitrile] stands >8; under `COc1ncc(C2=CCN(C(=O)c3c(C)oc4ncnc(NC5(C)CC5)c34)CC2)cc1F` [Example 13, 5-[4-(5-Fluoro-6-methoxypyridin-3-yl)-1,2,3,6-tetrahydropyridine-1-carbonyl]-6-methyl-N-(1-methylcyclopropyl)furo[2,3-d]pyrimidin-4-amine], >8. Same read-out and setting: to `COc1ncc(C2CCN(C(=O)c3c(C)oc4ncnc(NC5(C)CC5)c34)CC2)cc1F` [Example 14, 5-[4-(5-Fluoro-6-methoxypyridin-3-yl)piperidine-1-carbonyl]-6-methyl-N-(1-methylcyclopropyl)furo[2,3-d]pyrimidin-4-amine] belongs >8.

The assay is the same for the next values; noted with them: negative log of half-maximal molar inhibitory concentration; 200 nM FAM-cAMP; values given as bins; read-out: PDE1b (pIC50) (converted).
For the compound `Cc1oc2ncnc(NC3(C)CC3)c2c1C(=O)N1CC[C@@H]2CCCC[C@H]2C1` (stereo in doubt) [Example 271, 5-[(4aS,8aR)-Decahydroisoquinoline-2-carbonyl]-6-methyl-N-(1-methylcyclopropyl)furo[2,3-d]pyrimidin-4-amine], the IC50 is 10 to 100 nM.

Consider `COc1ccc(C(C)NC(=O)c2c(C)oc3ncnc(NC4(C)CC4)c23)cc1` (stereo in doubt) [Example 480, N-[(1S)-1-(4-Methoxyphenyl)ethyl]-6-methyl-4-[(1-methylcyclopropyl)amino]furo[2,3-d]pyrimidine-5-carboxamide], for which the IC50 is 10 to 100 nM. The same measure, in the same setting: under `COc1ccccc1C(C)NC(=O)c1c(C)oc2ncnc(NC3(C)CC3)c12` (stereo in doubt) [Example 482, N-[(1S)-1-(2-Methoxyphenyl)ethyl]-6-methyl-4-[(1-methylcyclopropyl)amino]furo[2,3-d]pyrimidine-5-carboxamide] stands 10 to 100 nM; under `Cc1oc2ncnc(NC3(C)CC3)c2c1C(=O)NC(C)c1ccc(F)cc1` (stereo in doubt) [Example 484, N-[(1R)-1-(4-Fluorophenyl)ethyl]-6-methyl-4-[(1-methylcyclopropyl)amino]furo[2,3-d]pyrimidine-5-carboxamide], 10 to 100 nM; under `Cc1oc2ncnc(NC3(C)CC3)c2c1C(=O)NC(C)c1ncc(F)cn1` (stereo in doubt) [Example 518, N-[(1S)-1-(5-Fluoropyrimidin-2-yl)ethyl]-6-methyl-4-[(1-methylcyclopropyl)amino]furo[2,3-d]pyrimidine-5-carboxamide], 100 to 1000 nM. For `Cc1oc2ncnc(NC3(C)CC3)c2c1C(=O)NC(C)c1ncc(F)cn1` (stereo in doubt) [Example 615, N-[(1R)-1-(5-Fluoropyrimidin-2-yl)ethyl]-6-methyl-4-[(1-methylcyclopropyl)amino]furo[2,3-d]pyrimidine-5-carboxamide], the IC50 is 10 to 100 nM.

With `Cc1oc2ncnc(NC3(C)CC3)c2c1C(=O)N1CCc2nc(C3CC3)ncc2C1` [Example 2, (2-Cyclopropyl-7,8-dihydropyrido[4,3-d]pyrimidin-6(5H)-yl)(6-methyl-4-((1-methylcyclopropyl)amino)furo[2,3-d]pyrimidin-5-yl)methanone], the IC50 was 10 to 100 nM.

Take `Cc1oc2ncnc(NC3(C)CC3)c2c1C(=O)NC1(CF)CC1` [Example 3, N-(1-(fluoromethyl)cyclopropyl)-6-methyl-4-((1-methylcyclopropyl)amino)furo[2,3-d]pyrimidine-5-carboxamide]: the IC50 is 10 to 100 nM. Turning to `COc1ncnc2c1CCN(C(=O)c1c(C)oc3ncnc(NC4(C)CC4)c13)C2` [Example 4, (4-Methoxy-5,8-dihydropyrido[3,4-d]pyrimidin-7(6H)-yl)(6-methyl-4-((1-methylcyclopropyl)amino)furo[2,3-d]pyrimidin-5-yl)methanone], the IC50 is 10 to 100 nM. Take `Cc1oc2ncnc(NC3(C)CC3)c2c1C(=O)N1CCc2c(F)ncnc2C1` [Example 5, (4-Fluoro-5,8-dihydropyrido[3,4-d]pyrimidin-7(6H)-yl)(6-methyl-4-((1-methylcyclopropyl)amino)furo[2,3-d]pyrimidin-5-yl)methanone]: the IC50 was 10 to 100 nM. `Cc1oc2ncnc(NC3(C)CC3)c2c1C(=O)N1CCc2c(Cl)ncnc2C1` [Example 6, 5-{4-chloro-5H,6H,7H,8H-pyrido[3,4-d]pyrimidine-7-carbonyl}-6-methyl-N-(1-methylcyclopropyl)furo[2,3-d]pyrimidin-4-amine]: the IC50 is 10 to 100 nM. Regarding `Cc1oc2ncnc(NC3(C)CC3)c2c1C(=O)N1CCc2c(ncnc2NCCF)C1` [Example 7, 5-{4-[(2-Fluoroethyl)amino]-5H,6H,7H,8H-pyrido[3,4-d]pyrimidine-7-carbonyl}-6-methyl-N-(1-methylcyclopropyl)furo[2,3-d]pyrimidin-4-amine trifluoroacetate], the IC50 was 10 to 100 nM. Still for that read-out and setting: under `Cc1oc2ncnc(NC3(C)CC3)c2c1C(=O)NCc1cnc(Cl)cn1` [Example 8, N-((5-Chloropyrazin-2-yl)methyl)-6-methyl-4-((1-methylcyclopropyl)amino)furo[2,3-d]pyrimidine-5-carboxamide] stands 10 to 100 nM.

Take `Cc1oc2ncnc(NC3(C)CC3)c2c1C(=O)NCc1cnc(F)cn1` [Example 9, N-((5-Fluoropyrazin-2-yl)methyl)-6-methyl-4-((1-methylcyclopropyl)amino)furo[2,3-d]pyrimidine-5-carboxamide]: the IC50 was 10 to 100 nM. With `Cc1oc2ncnc(NC3(C)CC3)c2c1C(=O)NCc1ccc(O)cn1` [Example 10, N-[(5-Hydroxypyridin-2-yl)methyl]-6-methyl-4-[(1-methylcyclopropyl)amino]furo[2,3-d]pyrimidin-5-carboxamide], the IC50 is 10 to 100 nM. As for `Cc1oc2ncnc(NC3(C)CC3)c2c1C(=O)N1CC=C(c2ncc(F)cn2)CC1` [Example 15, 5-[4-(5-Fluoropyrimidin-2-yl)-1,2,3,6-tetrahydropyridine-1-carbonyl]-6-methyl-N-(1-methylcyclopropyl)furo[2,3-d]pyrimidin-4-amine], the IC50 is 10 to 100 nM. For `Cc1oc2ncnc(NC3(C)CC3)c2c1C(=O)N1CCc2c(ncn(CF)c2=O)C1` [Example 16, 3-(Fluoromethyl)-7-{6-methyl-4-[(1-methylcyclopropyl)amino]furo[2,3-d]pyrimidine-5-carbonyl}-3H,4H,5H,6H,7H,8H-pyrido[3,4-d]pyrimidin-4-one], the IC50 is 10 to 100 nM. Turning to `Cc1oc2ncnc(NC3(C)CC3)c2c1C(=O)N1CCc2c(ncnc2OCF)C1` [Example 17, 5-[4-(fluoromethoxy)-5H,6H,7H,8H-pyrido[3,4-d]pyrimidine-7-carbonyl]-6-methyl-N-(1-methylcyclopropyl)furo[2,3-d]pyrimidin-4-amine], the IC50 is 10 to 100 nM. Turning to `Cc1oc2ncnc(NC3(C)CC3)c2c1C(=O)N1CCc2c(ncnc2N2CC[C@@H](F)C2)C1` [Example 18, 5-{4-[(3R)-3-Fluoropyrrolidin-1-yl]-5H,6H,7H,8H-pyrido[3,4-d]pyrimidine-7-carbonyl}-6-methyl-N-(1-methylcyclopropyl)furo[2,3-d]pyrimidin-4-amine], the IC50 was 10 to 100 nM. Turning to `Cc1oc2ncnc(NC3(C)CC3)c2c1C(=O)N1CCc2c(O)ccnc2C1` [Example 19, 7-{6-methyl-4-[(1-methylcyclopropyl)amino]furo[2,3-d]pyrimidine-5-carbonyl}-5,6,7,8-tetrahydro-1,7-naphthyridin-4-ol], the IC50 is 100 to 1000 nM.
